Measurements as given in patent publication US20220002429A1, “TUMOR CELL AGGREGATION INHIBITORS' FOR TREATING CANCER” (Northwestern University, priority 2018, published 2022).
Residues, ends and D or L forms follow the SMILES beside them. *: point of attachment. Cbz = O=C(OCc1ccccc1)*

What was measured:
MDA-MB-231 cells [1] = experiment: MDA-MB-231 cell aggregation in suspension on Poly-HEMA-coated plates; type: cell-based, human; settings: 4-MU 0.4 mM/L pre-treatment for 48 h; aggregation at 1 h
Protocol: Hyaluronan inhibition. Two complementary approaches were utilized to inhibit hyaluronan, the known CD44 ligand, in the two models. First, for the TN PDX model, dissociated cells were treated with hyaluronan antagonist (o-HA, HA oligomers) at 100 μg/mL during the 72-hour aggregation assays. For MDA-MB-231 cells, the hyaluronic acid synthase inhibitor 4-methylumbelliferone (4-MU, 0.4 mM/L) was added to the adherent culture. After 48 h of treatment, the cells were trypsinized and transferred to a poly-hydroxyethyl methacrylate (Poly-HEMA, Sigma-Aldrich) coated plate, and the images were taken at the indicated times by Leica microscopy.
Cell clustering assay. Freshly dissociated primary tumor cells in single cell suspension were seeded in collagen type I-coated 96-well plates. The plates were put into the IncuCyte live cell imaging system (Essen BioScience), and live images were taken every 2-4 h for up to one week. The cluster number and size were analyzed by Incucyte ZOOM software (Essen BioScience). In specific experiments, primary tumor cells might be sorted based on the expression of CD44 prior to seeding. In other experiments, seeded tumor cells might be transfected with siRNAs (100 nM) or treated with various inhibitors during the clustering assays. […]

TN1 PDX tumor cells = experiment: ex vivo aggregation (clustering) assay of dissociated PDX tumor cells, IncuCyte time-lapse imaging; type: cell-based, human
Protocol: Cell clustering assay. Freshly dissociated primary tumor cells in single cell suspension were seeded in collagen type I-coated 96-well plates. The plates were put into the IncuCyte live cell imaging system (Essen BioScience), and live images were taken every 2-4 h for up to one week. The cluster number and size were analyzed by Incucyte ZOOM software (Essen BioScience). In specific experiments, primary tumor cells might be sorted based on the expression of CD44 prior to seeding. In other experiments, seeded tumor cells might be transfected with siRNAs (100 nM) or treated with various inhibitors during the clustering assays. For cell viability analysis during clustering, the IncuCyte Cytotox Red reagent (Essen BioScience) was added to the medium according to the manufacturer's instructions.

MDA-MB-231 cells [2] = experiment: orthotopic breast tumor model: primary tumor, spontaneous lung metastasis and blood CTC clusters; type: in vivo, mice
Text: FIG. 21. Inhibition of EGFR blocks spontaneous metastasis. A. Timeline of treatment after palpable tumor formation in PDX model TN1. B. Bioluminescent images of tumor growth before or 1, or 17 days after treatment. C. Primary tumor signal over time, ns. D. Tumor images after 2 weeks of treatment. E. Bioluminescent images of lungs after treatment. F. Measured signal of lungs. p=0.09. G. Timeline of treatment of mice with Erlotinib or vehicle for FIGS. 19H-L. H. Bioluminescence images of orthotopically-implanted breast tumors treated with vehicle or 50 mg/kg Erlotinib (daily orally) for 4 weeks. I. BLI signal (total flux) histograms of the lungs from vehicle and Erlotinib-treated breast tumor bearing mice as shown in H. J. Bioluminescence images of dissected lungs from tumor bearing mice treated with vehicle or Erlotinib in C. K. Fluorescence images of dissected lungs from tumor bearing mice treated with vehicle or Erlotinib in C. L. Representative mix-color tumor cell clusters in blood from tumor bearing mice treated with vehicle or Erlotinib in C.
Inhibition of EGFR successfully blocks clustering and lung colonization. Using flow cytometry, we found enriched EGFR expression in clustered cells in the blood of breast cancer patients (FIG. 25). […] Furthermore, tdTomato- and eGFP-labeled MDA-MB-231 cells were implanted orthotopically together into the mammary fat pads of mice for examination of tumor cell cluster-mediated polyclonal, spontaneous lung metastasis.
Mouse models and tumor dissociation. 8-10 weeks old NOD/SCIDmice were used for PDXs and human MDA-MB-231 cell-based xenograft studies. The triple negative PDXs and MDA-MB-231 cells were lentivirally labeled by eGFP, tdTomato, Luc2-eGFP (L2G), or Luc2-tdTomato (L2T) using the lentiviruses and labeling protocol as described previously^3. PDX tumors were harvested and dissociated either with Collagenase III (TN1 model) or Liberase TH and TM research grade (TN2 model and lung tissues). Briefly, tumors were minced and incubated for 2-4 h at 37° C. with Collagenase III (Wortington Biomedical) or Liberase TH and TM (Roche) and 100 Kunitz U of DNase I (Sigma) in 20 mL of RPMI medium with 20 mM Hepes buffer. Single-cell suspensions were filtered through 40-μm nylon cell strainers and washed with Hanks' balanced saline solution (HBSS; Sigma) containing 2% heat-inactivated fetal bovine serum (FBS). Red blood cells were lysed with ACK lysis buffer, and dissociated bulk tumor cells were either cultured or stained with various antibodies in HBSS/2% FBS for further flow analysis or sorting on a BD FacsAria (BD Biosciences). […]
Bioluminescence imaging. […] Signals are presented as total photon flux and analyzed using Living Image 3.0 software (Caliper Life Sciences).

phospho-EGFR (Y845) = experiment: immunoblot of phospho-EGFR (Y845) in siCD44-transfected MDA-MB-231 cells; type: cell-based, human; settings: siCD44 MDA-MB-231 cells in suspension, inhibitor for 6 hours
Protocol: FIG. 23. CD44 promotes EGFR stability and activity in clusters. A. Immunoblots of phospho-EGFR (Y845), EGFR and actin of TN1-PDX tumor cells in clustering assays upon CD44 knockdown for 36 hours. B. Real-time PCR showing no significant (NS) effect of siCD44 on EGFR mRNA levels. Immunoblots of phospho-EGFR (Y845) and total EGFR of MDA-MB-231 cells in suspension for 48 hours after transfected with scramble control (con), siCD44, or siEGFR. D. Immunoblots of phospho-EGFR (Y845) in MDA-MB-231 cells, transfected with siCD44, either adherent (adh) or in suspension in the presence of proteasome inhibitor (MG-132) or endocytosis inhibitor (sucrose) for 6 hours. E. Immunoprecipitation of CD44-FLAG and detection of EGFR by immunoblot.
Western blot. Cells were lysed by RIPA buffer supplemented with Amresco protease inhibitor cocktail (1:100 diluted) and centrifuged for 10 mins at 4 degrees and 10,000 RPM. Protein concentration was measured and 20 ug of protein was loaded for each sample. Antibodies used: EGFR, p-EGFR, b-actin (abcam).

[3] = Erlotinib 50 mg/kg daily orally for 4 weeks

Cc1cc(=O)oc2cc(O)ccc12 [4-MU, 4-methylumbelliferone]
aggregation of MDA-MB-231 cells in suspension (MDA-MB-231 cells [1]): did not significantly alter the aggregation

C#Cc1cccc(Nc2ncnc3cc(OCCOC)c(OCCOC)cc23)c1 [Erlotinib]
PDX-derived tumor cell cluster formation, counts and size (TN1 PDX tumor cells; incubation with Erlotinib (1-10 μM), 72 hours): dramatically reduced PDX-derived tumor cell cluster formation, both the counts and size
primary tumor formation (MDA-MB-231 cells [2]; [3]): no effects on primary tumor formation
spontaneous lung metastasis (MDA-MB-231 cells [2]; [3]): significantly and dramatically reduced the spontaneous lung metastasis
CTC clusters in dual colors in the blood (MDA-MB-231 cells [2]; Erlotinib vs vehicle): only detectable in the blood collected from the vehicle-treated mice
dual color metastasis colonies in the lungs (MDA-MB-231 cells [2]; Erlotinib vs vehicle): absent but with reduced single-colored colonies

CCn1c(=O)c(-c2ccc(-c3cncs3)cc2Cl)cc2cnc(Nc3ccc(N4CCN(C)CC4)cc3)nc21 [FRAX597]
ex vivo aggregation of TN1 PDX tumor cells (cluster size and number) (TN1 PDX tumor cells; FRAX597 500 nM for 72 hours): partially blocked the ex vivo aggregation

CC(C)C[C@@H](C=O)NC(=O)[C@H](CC(C)C)NC(=O)[C@H](CC(C)C)NC(=O)OCc1ccccc1 [MG-132] (Cbz-Leu-Leu-Leu-aldehyde)
p-EGFR levels reduced by CD44 knockdown (phospho-EGFR (Y845)): rescued

OC[C@H]1O[C@@](CO)(O[C@H]2O[C@H](CO)[C@@H](O)[C@H](O)[C@H]2O)[C@@H](O)[C@@H]1O [sucrose]
p-EGFR levels reduced by CD44 knockdown (phospho-EGFR (Y845)): rescued
